Measurements reported in patent publication US10045983B2, “Heteroaryl pyridone and aza-pyrodine compounds” (Genentech, Inc., priority 2011, dated 2018).

Assay: CD69 Whole Blood Assay (CD69 Hu Blood FACS)
Type: cell-based, human
Conditions: Lymphocyte; human whole blood, anti-IgM activated B lymphocytes, FACS; IC70; Table 1; read-out: CD69 Hu Blood FACS IC70
Outline: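 Human whole blood stimulated by crosslinking surface IgM with goat F(ab′)2 anti-human IgM; inhibition of CD69 expression on B lymphocytes measured by flow cytometry.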

Going from Cn1cc(-c2ccnc(N3CCc4c(sc5c4CC(C)(C)C5)C3=O)c2CO)cc(Nc2ccncn2)c1=O [Example 143, 6-[3′-Hydroxymethyl-1-methyl-6-oxo-5-(pyrimidin-4-ylamino)-1,6-dihydro-[3,4′]bipyridinyl-2′-yl]-2,2-dimethyl-2,3,5,6-tetrahydro-1H,4H-8-thia-6-aza-cyclopenta[a]inden-7-one] to Cn1cc(-c2ccnc(N3CCn4c(cc5c4CC(C)(C)C5)C3=O)c2CO)cc(Nc2ccncn2)c1=O [Example 144, 2-[3′-Hydroxymethyl-1-methyl-6-oxo-5-(pyrimidin-4-ylamino)-1,6-dihydro-[3,4′]bipyridinyl-2′-yl]-7,7-dimethyl-3,4,7,8-tetrahydro-2H,6H-cyclopenta-[4,5]pyrrolo[1,2-a]pyrazin-1-one], the IC70 rises from 30.9 nM to 106 nM (3.4-fold).

Going from C[C@H]1CN(C2COC2)CCN1c1ccc(Nc2cc(-c3ccnc(N4CCn5c6c(c(F)c5C4=O)CCCC6)c3CO)cn(C)c2=O)nc1 [Example 136, (S)-10-Fluoro-2-(3-(hydroxymethyl)-4-(1-methyl-5-(5-(2-methyl-4-(oxetan-3-yl)piperazin-1-yl)pyridin-2-ylamino)-6-oxo-1,6-dihydropyridin-3-yl)pyridin-2-yl)-3,4,6,7,8,9-hexahydropyrazino[1,2-a]indol-1(2H)-one] to C[C@@H]1CN(c2ccc(Nc3cc(-c4ccnc(N5CCn6c(cc7c6CC(C)(C)C7)C5=O)c4CO)cn(C)c3=O)nc2)[C@@H](C)CN1C1COC1 [Example 158, 2-{5-[5-((2S,5R)-2,5-Dimethyl-4-oxetan-3-yl-piperazin-1-yl)-pyridin-2-ylamino]-3′-hydroxymethyl-1-methyl-6-oxo-1,6-dihydro-[3,4′]bipyridinyl-2′-yl}-7,7-dimethyl-3,4,7,8-tetrahydro-2H,6H-cyclopenta[4,5]pyrrolo[1,2-a]pyrazin-1-one], the IC70 falls from 30 nM to 20 nM (1.5-fold).

Compared with CN1CCN(c2cccc(Nc3cc(-c4ccnc(N5CCn6c(cc7c6CCCC7)C5=O)c4CO)cn(C)c3=O)n2)CC1 [Example 110, 2-(3-(Hydroxymethyl)-4-(1-methyl-5-(6-(4-methylpiperazin-1-yl)pyridine-2-ylamino)-6-oxo-1,6-dihydropyridin-3-yl)pyridin-2-yl)-3,4,6,7,8,9-hexahydropyrazino[1,2-a]indol-1(2H)-one], CN1CCn2nc(Nc3cc(-c4cncc(N5CCn6c(cc7c6CCCC7)C5=O)c4CO)cn(C)c3=O)cc2C1 [Example 138, 2-(4-(Hydroxymethyl)-5-(1-methyl-5-(5-methyl-4,5,6,7-tetrahydropyrazolo[1,5-a]pyrazin-2-ylamino)-6-oxo-1,6-dihydropyridin-3-yl)pyridin-3-yl)-3,4,6,7,8,9-hexahydropyrazino[1,2-a]indol-1(2H)-one] is 7.6-fold lower in IC70: 2700 nM for the first, 353 nM for the second.

For Cn1cc(-c2cncc(N3CCn4c(cc5c4CC(C)(C)C5)C3=O)c2CO)cc(Nc2ccc(N3CCN(C4COC4)CC3)cn2)c1=O [Example 107, 10-[4-[1-Methyl-5-({5-[4-(oxetan-3-yl)piperazin-1-yl]pyridine-2-yl}amino)-6-oxo-1,6-dihydropyridin-3-yl]-4-(hydroxymethyl)pyridin-3-yl]-4,4-dimethyl-1,10-diazatricyclo[6.4.0.0^2,6]dodeca-2(6),7-dien-9-one], the IC70 was 21.6 nM.

Same assay, conditions: Lymphocyte; human whole blood, anti-IgM activated B lymphocytes, FACS; IC70; Table 2 (unit inferred); read-out: CD69 Hu Blood FACS (IC70)

First: CN1CCn2nc(Nc3cc(-c4ccnc(N5CCc6c(c(F)c7n6CCCC7)C5=O)c4CO)cn(C)c3=O)cc2C1 [Example 241, 10-fluoro-2-[3-(hydroxymethyl)-4-[1-methyl-5-[(5-methyl-6,7-dihydro-4H-pyrazolo[1,5-a]pyrazin-2-yl)amino]-6-oxo-3-pyridyl]-2-pyridyl]-3,4,6,7,8,9-hexahydropyrido[3,4-b]indolizin-1-one]
Second: CC(=O)N1CCn2nc(Nc3cc(-c4ccnc(N5CCn6c7c(c(F)c6C5=O)CCCC7)c4CO)cn(C)c3=O)cc2C1 [Example 255, 2-[4-[5-[(5-acetyl-6,7-dihydro-4H-pyrazolo[1,5-a]pyrazin-2-yl)amino]-1-methyl-6-oxo-3-pyridyl]-3-(hydroxymethyl)-2-pyridyl]-10-fluoro-3,4,6,7,8,9-hexahydropyrazino[1,2-a]indol-1-one]
The IC70 of the first is 2-fold higher: 190 nM for the first, 94 nM for the second.

CN1Cc2cc(Nc3cc(-c4ccnc(N5CCn6c(cc7c6CC(C)(C)C7)C5=O)c4CO)cn(C)c3=O)nn2CC1=O [Example 313, 3-[3-(hydroxymethyl)-4-[1-methyl-5-[(5-methyl-6-oxo-4,7-dihydropyrazolo[1,5-a]pyrazin-2-yl)amino]-6-oxo-3-pyridyl]-2-pyridyl]-7,7-dimethyl-1,2,6,8-tetrahydrocyclopenta[3,4]pyrrolo[3,5-b]pyrazin-4-one] and C[C@H]1c2cc(Nc3cc(-c4ccnc(N5CCn6c(cc7c6CC(C)(C)C7)C5=O)c4CO)cn(C)c3=O)nn2CCN1C [Example 319, (S)-2-(5-((4,5-dimethyl-4,5,6,7-tetrahydropyrazolo[1,5-a]pyrazin-2-yl)amino)-3′-(hydroxymethyl)-1-methyl-6-oxo-1,6-dihydro-[3,4′-bipyridin]-2′-yl)-7,7-dimethyl-2,3,4,6,7,8-hexahydro-1H-cyclopenta[4,5]pyrrolo[1,2-a]pyrazin-1-one] are within 1.5-fold of each other in IC70: 19.1 nM for the first, 16.7 nM for the second.

Cn1cc(-c2ccnc(N3CCn4c(cc5c4CC(C)(C)C5)C3=O)c2CO)cc(Nc2cc(C3CC3)on2)c1=O [Example 311, 3-[4-[5-[(5-cyclopropylisoxazol-3-yl)amino]-1-methyl-6-oxo-3-pyridyl]-3-(hydroxymethyl)-2-pyridyl]-7,7-dimethyl-1,2,6,8-tetrahydrocyclopenta[3,4]pyrrolo[3,5-b]pyrazin-4-one] and Cc1cc(Nc2cc(-c3ccnc(N4CCn5c(cc6c5CC(C)(C)C6)C4=O)c3CO)cn(C)c2=O)no1 [Example 283, 3-[3-(hydroxymethyl)-4-[1-methyl-5-[(5-methylisoxazol-3-yl)amino]-6-oxo-3-pyridyl]-2-pyridyl]-7,7-dimethyl-1,2,6,8-tetrahydrocyclopenta[3,4]pyrrolo[3,5-b]pyrazin-4-one] are within 1.5-fold of each other in IC70: 158 nM for the first, 143 nM for the second.

Going from C[C@H]1CN(C2COC2)CCN1c1ccc(Nc2cc(-c3ccnc(N4CCn5c(cc6c5CCCC6)C4)c3CO)cn(C)c2=O)nc1 [Example 220, 5-[2-(3,4,6,7,8,9-hexahydro-1H-pyrazino[1,2-a]indol-2-yl)-3-(hydroxymethyl)-4-pyridyl]-1-methyl-3-[[5-[(2S)-2-methyl-4-(oxetan-3-yl)piperazin-1-yl]-2-pyridyl]amino]pyridin-2-one] to Cn1cc(-c2ccnc(-n3ncc4c5n(cc4c3=O)CCCC5)c2CO)cc(Nc2ccc(N3CCN(C4COC4)CC3)cn2)c1=O [Example 198, 3-[3-(hydroxymethyl)-4-[1-methyl-5-[[5-[4-(oxetan-3-yl)piperazin-1-yl]-2-pyridyl]amino]-6-oxo-3-pyridyl]-2-pyridyl]-7,8,9,10-tetrahydropyridazino[4,5-a]indolizin-4-one], the IC70 rises from 1600 nM to 6000 nM (3.8-fold).

Compared with Cc1c2cc(Nc3cc(-c4ccnc(N5CCn6c(cc7c6CC(C)(C)C7)C5=O)c4CO)cn(C)c3=O)ncc2nn1C [Example 326, 3-[4-[5-[(2,3-dimethylpyrazolo[3,4-c]pyridin-5-yl)amino]-1-methyl-6-oxo-3-pyridyl]-3-(hydroxymethyl)-2-pyridyl]-7,7-dimethyl-1,2,6,8-tetrahydrocyclopenta[3,4]pyrrolo[3,5-b]pyrazin-4-one], Cn1cc(-c2ccnc(N3CCn4c(cc5c4CC(C)(C)C5)C3=O)c2CO)cc(Nc2ccnc(C(C)(C)O)n2)c1=O [Example 264, 3-[3-(hydroxymethyl)-4-[5-[[2-(1-hydroxy-1-methyl-ethyl)pyrimidin-4-yl]amino]-1-methyl-6-oxo-3-pyridyl]-2-pyridyl]-7,7-dimethyl-1,2,6,8-tetrahydrocyclopenta[3,4]pyrrolo[3,5-b]pyrazin-4-one] is 2.1-fold lower in IC70: 1400 nM for the first, 653 nM for the second.

Going from Cn1cc(-c2ccnc(N3CCn4c(cc5c4CC(C)(C)C5)C3=O)c2CO)cc(Nc2ccc(C(F)(F)F)cn2)c1=O [Example 279, 3-[3-(hydroxymethyl)-4-[1-methyl-6-oxo-5-[[5-(trifluoromethyl)-2-pyridyl]amino]-3-pyridyl]-2-pyridyl]-7,7-dimethyl-1,2,6,8-tetrahydrocyclopenta[3,4]pyrrolo[3,5-b]pyrazin-4-one] to CN1CC(c2ccc(Nc3cc(-c4ccnc(N5CCn6c(cc7c6CCCC7)C5=O)c4CO)cn(C)c3=O)nc2)C1 [Example 239, 2-[3-(hydroxymethyl)-4-[1-methyl-5-[[5-(1-methylazetidin-3-yl)-2-pyridyl]amino]-6-oxo-3-pyridyl]-2-pyridyl]-3,4,6,7,8,9-hexahydropyrazino[1,2-a]indol-1-one], the IC70 falls from 2100 nM to 153 nM (14-fold).

Going from Cn1nc(-c2ccnc(N3CCc4c(sc5c4CC(C)(C)C5)C3=O)c2CO)cc(Nc2ccc(C(=O)N3CCOCC3)cn2)c1=O [Example 259, 3-[3-(hydroxymethyl)-4-[1-methyl-5-[[5-(morpholine-4-carbonyl)-2-pyridyl]amino]-6-oxo-pyridazin-3-yl]-2-pyridyl]-7,7-dimethyl-1,2,6,8-tetrahydrocyclopenta[3,4]thieno[1,3-c]pyridin-4-one] to Cn1nc(Nc2cc(-c3ccnc(N4CCn5c(cc6c5CC(C)(C)C6)C4=O)c3CO)cn(C)c2=O)cc1C(=O)N1CCOCC1 [Example 280, 3-[3-(hydroxymethyl)-4-[1-methyl-5-[[1-methyl-5-(morpholine-4-carbonyl)pyrazol-3-yl]amino]-6-oxo-3-pyridyl]-2-pyridyl]-7,7-dimethyl-1,2,6,8-tetrahydrocyclopenta[3,4]pyrrolo[3,5-b]pyrazin-4-one], the IC70 falls from 301 nM to 14.1 nM (21-fold).

C[C@@H]1COC[C@H](C)N1C(=O)c1ccc(Nc2cc(-c3ccnc(N4CCn5c(cc6c5CCCC6)C4=O)c3CO)cn(C)c2=O)nc1 [Example 322, 2-[4-[5-[[5-[(3S,5R)-3,5-dimethylmorpholine-4-carbonyl]-2-pyridyl]amino]-1-methyl-6-oxo-3-pyridyl]-3-(hydroxymethyl)-2-pyridyl]-3,4,6,7,8,9-hexahydropyrazino[1,2-a]indol-1-one] gave an IC70 of 79.6 nM.
